The nature of data set [1]: Evaluation of absorption maximum and absorbance ratio (500 nm/λmax) in solution. Particulars: for Absorbance Ratio (500 nm/λmax) / Absorption Maximum (nm): solvent chloroform. The data set is classed as physicochemical. From the text: In this specification, “having an absorption maximum in a wavelength range of 650 to 1000 nm” denotes having a maximum absorbance in a wavelength range of 650 to 1000 nm in an absorption spectrum of the near infrared absorbing compound in a solution. Examples of a measurement solvent used for the measurement of the absorption spectra of the near infrared absorbing compound in the solution include chloroform, methanol, dimethyl sulfoxide, ethyl acetate, and tetrahydrofuran. In the case of a compound which is soluble in chloroform, chloroform is used as the measurement solvent. In the case of a compound which is not soluble in chloroform, methanol is used. In addition, In the case of a compound which is not soluble in chloroform and methanol, dimethyl sulfoxide is used.
Each of the compounds was dissolved in a measurement solvent shown in the following tables (concentration: 2.5×10^−6 mol/L) to measure an absorption spectrum (optical path length: 10 mm).
In addition, an absorbance ratio (500 nm/λmax) as a value obtained by dividing an absorbance at a wavelength of 500 nm by an absorbance at an absorption maximum was evaluated based on the following criteria.
A: the absorbance ratio (500 nm/λmax) was 0.04 or lower
B: the absorbance ratio (500 nm/λmax) was higher 0.04 and 0.08 or lower
C: the absorbance ratio (500 nm/λmax) was higher than 0.08

Data set [2] in a line: Evaluation of solubility in water at 23° C. Particulars: stirred for 1 hour. The data set is classed as physicochemical. As to the method: Each of the compounds was added to water at 23° C. under the atmospheric pressure, the components were stirred for 1 hour, and the solubility of the compound in water was obtained. The solubility of the compound was evaluated based on the following criteria.
A: the solubility in water at 23° C. was 0.1 mass % or lower
B: the solubility in water at 23° C. was higher than 0.1 mass % and 1 mass % or lower
C: the solubility in water at 23° C. was higher than 1 mass %

The structures appear in SMILES notation.

As for `CC(C)CCCCCCCC(CCCCCC(C)C)COc1cccc(-c2c3c(=C(C#N)c4nc5c(ccc6ccccc65)o4)n(B(c4ccccc4)c4ccccc4)c(-c4cccc(OCC(CCCCCCCC(C)C)CCCCCC(C)C)c4)c3c(=C(C#N)c3nc4c(ccc5ccccc54)o3)n2B(c2ccccc2)c2ccccc2)c1` (centres unmarked) [II-715], in data set [1], the “Absorbance Ratio (500 nm/λmax)” value is listed as “A (the absorbance ratio (500 nm/λmax) was 0.04 or lower)” and the “Absorption Maximum (nm)” value is 769 nm. The Solubility entry in data set [2] is “A (the solubility in water at 23 °C was 0.1 mass % or lower)”.

With `CC(C)CCCCCCCC(CCCCCC(C)C)COc1ccc(-c2c3c(=C(C#N)c4cnc5ccccc5n4)n(B(c4ccccc4)c4ccccc4)c(-c4ccc(OCC(CCCCCCCC(C)C)CCCCCC(C)C)cc4)c3c(=C(C#N)c3cnc4ccccc4n3)n2B(c2ccccc2)c2ccccc2)cc1` (centres unmarked) [III-9], in data set [1], the “Absorbance Ratio (500 nm/λmax)” value is on record as “A (the absorbance ratio (500 nm/λmax) was 0.04 or lower)” and the “Absorption Maximum (nm)” value is 863 nm. In addition, the Solubility result in data set [2] was “A (the solubility in water at 23 °C was 0.1 mass % or lower)”.

As for `CC(CCC(COc1cccc(-c2c3/c(=C(\C#N)c4cnc5ccccc5n4)n(B(c4ccccc4)c4ccccc4)c(-c4cccc(OCC(CCC(C)CC(C)(C)C)C(C)CC(C)(C)C)c4)c3/c(=C(\C#N)c3cnc4ccccc4n3)n2B(c2ccccc2)c2ccccc2)c1)C(C)CC(C)(C)C)CC(C)(C)C` (centres unmarked) [III-28], in data set [1], the “Absorbance Ratio (500 nm/λmax)” value is on record as “A (the absorbance ratio (500 nm/λmax) was 0.04 or lower)” and the “Absorption Maximum (nm)” value turned out to be 863 nm. For the same molecule, the Solubility result in data set [2] was “A (the solubility in water at 23 °C was 0.1 mass % or lower)”.

For the molecule `CCCCCCCCCCC(CCCCCCCC)COc1cccc(-c2c3c(=C(C#N)c4cnc5ccccc5n4)n(B(c4ccccc4)c4ccccc4)c(-c4cccc(OCC(CCCCCCCC)CCCCCCCCCC)c4)c3c(=C(C#N)c3cnc4ccccc4n3)n2B(c2ccccc2)c2ccccc2)c1` (centres unmarked) [III-29], in data set [1], the “Absorbance Ratio (500 nm/λmax)” value is reported as “A (the absorbance ratio (500 nm/λmax) was 0.04 or lower)” and the “Absorption Maximum (nm)” value was determined as 863 nm. The Solubility entry in data set [2] was “A (the solubility in water at 23 °C was 0.1 mass % or lower)”.

For `CC(C)CCCCCCCC(CCCCCC(C)C)COc1ccc(-c2c3c(=C(C#N)c4cnc5cc(Cl)c(Cl)cc5n4)n(B(c4ccccc4)c4ccccc4)c(-c4ccc(OCC(CCCCCCCC(C)C)CCCCCC(C)C)cc4)c3c(=C(C#N)c3cnc4cc(Cl)c(Cl)cc4n3)n2B(c2ccccc2)c2ccccc2)cc1` (centres unmarked) [III-167], in data set [1], the “Absorbance Ratio (500 nm/λmax)” value is on record as “A (the absorbance ratio (500 nm/λmax) was 0.04 or lower)” and the “Absorption Maximum (nm)” value was 885 nm. Besides, in data set [2], the Solubility entry was “A (the solubility in water at 23 °C was 0.1 mass % or lower)”.

Regarding `CC(CCC(COc1ccc(-c2c3/c(=C(\C#N)c4cnc5cc(Cl)c(Cl)cc5n4)n(B(c4ccccc4)c4ccccc4)c(-c4ccc(OCC(CCC(C)CC(C)(C)C)C(C)CC(C)(C)C)cc4)c3/c(=C(\C#N)c3cnc4cc(Cl)c(Cl)cc4n3)n2B(c2ccccc2)c2ccccc2)cc1)C(C)CC(C)(C)C)CC(C)(C)C` (centres unmarked) [III-168], in data set [1], the “Absorbance Ratio (500 nm/λmax)” value is recorded as “A (the absorbance ratio (500 nm/λmax) was 0.04 or lower)” and the “Absorption Maximum (nm)” value was 885 nm. Further, in data set [2], the Solubility result was “A (the solubility in water at 23 °C was 0.1 mass % or lower)”.

Regarding `Cc1cc2ncc(/C(C#N)=c3/c4c(-c5cccc(OCC(CCC(C)CC(C)(C)C)C(C)CC(C)(C)C)c5)n(B(c5ccccc5)c5ccccc5)/c(=C(/C#N)c5cnc6cc(C)c(C)cc6n5)c4c(-c4cccc(OCC(CCC(C)CC(C)(C)C)C(C)CC(C)(C)C)c4)n3B(c3ccccc3)c3ccccc3)nc2cc1C` (centres unmarked) [III-328], in data set [1], the “Absorbance Ratio (500 nm/λmax)” value is listed as “A (the absorbance ratio (500 nm/λmax) was 0.04 or lower)” and the “Absorption Maximum (nm)” value is given as 872 nm. Besides, in data set [2], the Solubility entry is “A (the solubility in water at 23 °C was 0.1 mass % or lower)”.

For the molecule `CC(CCC(COc1cccc(-c2c3/c(=C(\C#N)c4ccc5ccccc5n4)n(B(c4ccccc4)c4ccccc4)c(-c4cccc(OCC(CCC(C)CC(C)(C)C)C(C)CC(C)(C)C)c4)c3/c(=C(\C#N)c3ccc4ccccc4n3)n2B(c2ccccc2)c2ccccc2)c1)C(C)CC(C)(C)C)CC(C)(C)C` (centres unmarked) [III-358], in data set [1], the “Absorbance Ratio (500 nm/λmax)” value is reported as “A (the absorbance ratio (500 nm/λmax) was 0.04 or lower)” and the “Absorption Maximum (nm)” value was 814 nm. Further, the Solubility result in data set [2] is “A (the solubility in water at 23 °C was 0.1 mass % or lower)”.

On to `Cc1ccc2oc(/C(C#N)=c3/c4c(-c5cccc(OCC(CCC(C)CC(C)(C)C)C(C)CC(C)(C)C)c5)n(B5Oc6ccccc6O5)/c(=C(/C#N)c5nc6ccccc6s5)c4c(-c4cccc(OCC(CCC(C)CC(C)(C)C)C(C)CC(C)(C)C)c4)n3B3Oc4ccccc4O3)nc2c1` (centres unmarked) [IV-92], for which, in data set [1] (absorption maximum of the second near infrared absorbing compound), the “Second Near Infrared Absorbing Compound λmax (nm)” value came out at 702 nm. Besides, the “λmax (nm) of Second Near Infrared Absorbing Compound” value in data set [1] (as listed in Table 58) is on record as 701 nm. Further, in data set [1], the “Absorbance Ratio (500 nm/λmax)” value is “A (the absorbance ratio (500 nm/λmax) was 0.04 or lower)” and the “Absorption Maximum (nm)” value came out at 701 nm. Moreover, the Solubility entry in data set [2] is “A (the solubility in water at 23 °C was 0.1 mass % or lower)”.

Take `CC(CCC(COc1cccc(-c2[nH]/c(=C(/C#N)c3cnc4ccccc4n3)c3c(-c4cccc(OCC(CCC(C)CC(C)(C)C)C(C)CC(C)(C)C)c4)[nH]/c(=C(/C#N)c4cnc5ccccc5n4)c23)c1)C(C)CC(C)(C)C)CC(C)(C)C` (centres unmarked) [PP-1]: in data set [1], the “Absorbance Ratio (500 nm/λmax)” value is “B (the absorbance ratio (500 nm/λmax) was higher 0.04 and 0.08 or lower)”; the “Absorption Maximum (nm)” value was found to be 739 nm. Moreover, the Solubility entry in data set [2] was “A (the solubility in water at 23 °C was 0.1 mass % or lower)”.

These data come from patent US10947389B2, “Composition, film, near infrared cut filter, laminate, pattern forming method, solid image pickup element, image display device, infrared sensor, and color filter” (FUJIFILM Corporation, priority 2016, dated 2021).
